The source of these data is paper PMC10891067, “A co-assembly platform engaging macrophage scavenger receptor A for lysosome-targeting protein degradation” (Nature Communications, 2024).

Non-standard residues stand in square brackets, D forms with d. Residues, ends and D or L forms follow the SMILES beside them. *: point of attachment. Acetyl(2-naphthyl) = O=C(Cc1ccc2ccccc2c1)*; Ahx = NCCCCCC(=O)O

One assay has as its system RAW264.7 cells. Briefly: IL-17A uptake mechanism: endocytic pathway inhibitors, 4 °C, NaN3. It is filed as cell-based. As to conditions: RAW264.7, 0.5 μg/ml IL-17A + 50 μM mixed fi-SRAL and fi-17Abp, 6 h; NaN3 100 mM, CPZ 3 μg/ml, Me-β-CD 0.5 mM, EIPA 20 μM. As to the method:
To evaluate the uptake mechanism of IL-17A, RAW264.7 cells were pretreated with various inhibitors for 30 min at 37 °C: chlorpromazine (clathrin-mediated endocytosis inhibitor, 3 μg/ml), Me-β-cyclodextrin (0.5 mM, lipid rafting pathway inhibitors), EIPA (20 μM, pinocytosis inhibitor). In addition, the cells were cultured at 4 °C or treated with NaN3 (100 mM) to assess the effect of energy on IL-17A uptake. After that, the cells were cultured with fresh medium containing inhibitors at the same concentrations, 50 μM 17Abp and SRAL mixture, and 0.5 μg/ml IL-17A for 6 h. The uptake of the IL-17A by cells was analyzed through flow cytometry according to the procedure mentioned above.
Supplementary Fig. 5 Uptake of IL-17A by macrophages is an energy-dependent process involving several endocytosis pathways. a) Uptake of IL-17A in RAW264.7 cells incubated at 4 °C or pretreated with 100 mM NaN3 for 0.5 h followed by the addition of 0.5 μg/ml IL-17A and 50 μM mixed fi-SRAL and fi-17Abp peptides for 6 h. b) Uptake of IL-17A in RAW264.7 cells incubated with 0.5 mM Me-β-CD (lipid rafting pathway inhibitor), 20 μM EIPA (pinocytosis inhibitor) or 3 μg/ml CPZ (clathrin-endocytosis inhibitor) for 0.5 h followed by the addition of 0.5 μg/ml IL-17A and 50 μM mixed fi-SRAL and fi-17Abp peptides for 6 h. MFI was determined by flow cytometry and the relative MFI was normalized to the control group. Data are presented as the mean ± SD, and error bars represent the standard deviation of biological replicates (n = 3). P values were determined by one-way ANOVA with Tukey’s multiple comparisons test. […]

The target of another assay is T1, IL-17A (Mus musculus, UniProt Q62386).
T1 sequence (Q62386 26-158): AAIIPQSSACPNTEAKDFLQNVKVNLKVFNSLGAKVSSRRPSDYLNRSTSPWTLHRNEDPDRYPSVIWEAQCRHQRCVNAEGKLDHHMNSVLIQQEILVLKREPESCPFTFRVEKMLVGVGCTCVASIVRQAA
Briefly: IL-17A protein level in skin lesion (ELISA). Format: in vivo. As to conditions: i.p. 7 days: fm-17Abp 15, fm-SRAL 22, 17A-Lytaca 15+22, control-Lytaca 12+22 mg/kg/day, MTX 1 mg/kg/twice day. As for the experimental part:
Plasma cytokine concentrations of IL-17A, IL-6, IL-22, and CCL-20 were determined by a commercial ELISA kit (Dogesce). For skin IL-17A detection, the back skin of mice was isolated and triturated with a grinder (Tiss-24, Jing Xin). Cell debris was precipitated via centrifugation (1000×g, 4 °C, 15 min), and IL-17A was measured in the supernatant using the IL-17A ELISA kit (Dogesce) and normalized to the total protein concentration, which was determined via BCA assay.

Assay [1] concerns IMQ-induced psoriasis-like mouse model. Briefly: IMQ-induced psoriasis mouse model: acanthosis (H&E of back skin). It is filed as in vivo. As to conditions: day 7, H&E of back skin, IMQ psoriasis BALB/c mice, i.p. 7 days: fm-17Abp 15, fm-SRAL 22, 17A-Lytaca 15+22, control-Lytaca 12+22 mg/kg/day, MTX 1 mg/kg/twice day. As to the method: 8 to10-week-old female BALB/c mice were purchased from Peking University Health Science Center Department of Laboratory Animal Science. They were randomly divided into seven groups. Vehicle group (PBS administration) was treated with 62.5 mg/day of Vaseline cream while the other six groups were treated with 62.5 mg/day of 5% IMQ cream (Sichuan Med-shine Pharmaceuticals) on the shaved back skin (2 cm × 3 cm) of mice (days 1–7).
The psoriasis area and severity index (PASI) consists of measurements of skin erythema, scale, and thickness. They were scored independently on a scale of 0–4: 0, none; 1, slight; 2, moderate; 3, marked; 4, very marked. The cumulative PASI score was obtained by adding the 3 index scores (scores of 0–12). The thickness of the mouse skin was measured using a micrometer, and the average value was measured three times a day. For histopathology analysis, tissues from the euthanized animals were fixed in formalin and embedded in paraffin. Sections (5 μm thickness) were stained with H&E.

For another assay, the target named is T2, PD-L1 (Mus musculus, UniProt Q9EP73).
T2 construct: endogenous in cells; host or cells: RAW264.7 (WT and SR-A-KO)
T2 sequence (Q9EP73 19-290): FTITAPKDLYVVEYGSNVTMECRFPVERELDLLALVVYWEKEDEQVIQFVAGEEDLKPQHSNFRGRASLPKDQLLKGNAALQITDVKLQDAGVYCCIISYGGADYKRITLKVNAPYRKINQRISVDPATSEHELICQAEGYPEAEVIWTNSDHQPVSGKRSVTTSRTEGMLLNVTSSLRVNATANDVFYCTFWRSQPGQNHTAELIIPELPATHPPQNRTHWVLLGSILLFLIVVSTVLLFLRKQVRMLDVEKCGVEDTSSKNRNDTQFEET
Nature of the assay: Western blot of PD-L1 in RAW264.7 cells. Format: cell-based. To be noted: Suppl Fig.18c, 50 μM, PBS = 100. As to the method: Proteins were extracted using RIPA buffer (Beyotime) supplemented with protease inhibitors (Beyotime) and quantified using the BCA assay (Solarbio). SDS–PAGE was performed to separate proteins, which were then transferred to PVDF membranes (EMD Millipore). Next, the membranes were blocked in 5% fat-free milk for 2 h and incubated with primary antibodies at 4 °C overnight. including Rabbit anti-GAPDH antibody (1:5000, ab181602, Abcam), Mouse anti-GAPDH antibody (1:5000, 60004-1-Ig, Proteintech), Rabbit anti-CD2O4 antibody (1:1000, ab151707, Abcam), Mouse anti-PD-L1antibody (1:1000, 66248-1-Ig, Proteintech), Mouse anti-His-Tag antibody (1:2000, CW0286, CoWin Biosciences), Phospho-p44/42 MAPK (Erk1/2) (Thr202/Tyr204) (D13.14.4E) XP® Rabbit mAb, (1:1000, 4370T, Cell Signaling Technology), p44/42 MAPK (Erk1/2) (137F5) Rabbit mAb (1:1000 4695T, Cell Signaling Technology). After washing the membranes three times, secondary antibodies including HRP-conjugated Affinipure Goat Anti-Mouse IgG(H + L) (1:5000, SA00001-1, Proteintech), HRP-conjugated Affinipure Goat Anti-Rabbit IgG(H + L) (1:5000, SA00001-2, Proteintech) labeled with horseradish peroxidase (Proteintech) were applied at room temperature for 2 h and the immunoreactivity was visualized by supper ECL western blotting substrate (Coolaber). The densitometric analysis was performed by ImageJ software (NIH).
In general terms: Immunoblotting shows a protein as a band on a membrane.

A further assay addresses T3, SR-A (Mus musculus, UniProt P30204).
T3 construct: endogenous in cells; host or cells: RAW264.7
T3 sequence (P30204 1-458): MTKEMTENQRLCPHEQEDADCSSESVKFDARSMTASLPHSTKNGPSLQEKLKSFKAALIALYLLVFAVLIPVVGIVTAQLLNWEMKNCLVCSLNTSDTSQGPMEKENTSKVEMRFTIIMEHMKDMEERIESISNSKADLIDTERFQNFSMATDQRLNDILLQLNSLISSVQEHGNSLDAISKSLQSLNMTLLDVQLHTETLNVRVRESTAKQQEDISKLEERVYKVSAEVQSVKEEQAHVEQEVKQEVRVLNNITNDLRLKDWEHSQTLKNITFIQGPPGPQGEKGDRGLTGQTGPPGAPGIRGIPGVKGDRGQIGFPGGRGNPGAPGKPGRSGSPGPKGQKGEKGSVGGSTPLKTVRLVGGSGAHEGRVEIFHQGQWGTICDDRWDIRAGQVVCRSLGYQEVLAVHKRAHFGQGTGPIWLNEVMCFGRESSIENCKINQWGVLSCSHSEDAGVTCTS
Nature of the assay: SR-A inhibition assay with poly I / poly C (IL-17A uptake). It is filed as cell-based. As to conditions: RAW264.7, with exogenous IL-17A and the peptide mixture. As for the experimental part: To verify the involvement of SR-A in the IL-17A endocytosis, RAW264.7 cells were treated with the SR-A inhibitor Poly I or the control Poly C at the indicated concentration together with the 50 μM 17Abp and SRAL mixture and 0.5 μg/ml IL-17A for 6 h. Then, flow cytometry analysis was used to measure the intracellular IL-17A level according to the procedure mentioned above.

As for `CN(C)CCCN1c2ccccc2Sc2ccc(Cl)cc21` [CPZ, chlorpromazine], the “Effect of endocytosis/energy inhibitor on IL-17A uptake (in words)” value (“Effect of endocytosis/energy inhibitor” for short) with RAW264.7 cells was “significant decreases in cellular fluorescence”.

For the compound `CCN(c1nc(N)c(C(=O)N=C(N)N)nc1Cl)C(C)C` [EIPA, 5-(N-ethyl-N-isopropyl)-amiloride], the “Effect of endocytosis/energy inhibitor” value in the assay with RAW264.7 cells was “decreased IL-17A uptake”.

With `CN(Cc1cnc2nc(N)nc(N)c2n1)c1ccc(C(=O)N[C@@H](CCC(=O)O)C(=O)O)cc1` [MTX, methotrexate], the “Skin IL-17A” value is 60.0538 pg/mg protein at IL-17A (day 7, animal 1 of n = 5, IMQ psoriasis BALB/c mice); 102.2787 pg/mg protein at IL-17A (day 7, animal 2 of n = 5, IMQ psoriasis BALB/c mice); 103.0959 pg/mg protein at IL-17A (day 7, animal 3 of n = 5, IMQ psoriasis BALB/c mice); 57.7792 pg/mg protein on IL-17A (day 7, animal 4 of n = 5, IMQ psoriasis BALB/c mice); 78.3380 pg/mg protein on IL-17A (day 7, animal 5 of n = 5, IMQ psoriasis BALB/c mice). Moreover, the Acanthosis in assay [1] (animal 1 of n = 5) stood at 66.3 μm; in assay [1] (animal 2 of n = 5), 89.8 μm; in assay [1] (animal 3 of n = 5), 73.7 μm; in assay [1] (animal 4 of n = 5) it was 59.4 μm; in assay [1] (animal 5 of n = 5), 85.7 μm.

Regarding `[N-]=[N+]=[N-].[Na+]` [NaN3], the “Effect of endocytosis/energy inhibitor” value in the assay with RAW264.7 cells is listed as “significantly reduced intracellular fluorescence signals of IL-17A”.

Regarding `C[C@H](NC(=O)[C@H](CCC(=O)O)NC(=O)[C@H](C)NC(=O)[C@H](CCC(=O)O)NC(=O)[C@H](C)NC(=O)[C@H](CCC(=O)O)NC(=O)[C@H](C)NC(=O)[C@H](CCC(=O)O)NC(=O)[C@H](C)NC(=O)[C@H](CCC(=O)O)NC(=O)[C@H](C)NC(=O)[C@H](CCC(=O)O)NC(=O)[C@H](C)NC(=O)[C@H](CCC(=O)O)NC(=O)[C@H](C)NC(=O)[C@H](CCC(=O)O)NC(=O)[C@H](C)NC(=O)[C@H](CCC(=O)O)NC(=O)[C@H](C)NC(=O)[C@H](CCC(=O)O)NC(=O)[C@H](C)NC(=O)[C@H](CCC(=O)O)NC(=O)[C@H](C)NC(=O)[C@H](CCC(=O)O)NC(=O)[C@H](C)NC(=O)[C@H](CCC(=O)O)NC(=O)[C@H](C)NC(=O)[C@H](CCC(=O)O)NC(=O)[C@H](C)NC(=O)[C@H](CCC(=O)O)NC(=O)CCCCCNC(=O)[C@H](Cc1ccccc1)NC(=O)[C@H](Cc1ccccc1)NC(=O)Cc1ccc2ccccc2c1)C(N)=O` [nf-SRAL] ({Acetyl(2-naphthyl)}-FF[Ahx]EAEAEAEAEAEAEAEAEAEAEAEAEAEAEA-NH2), the “Relative intensity of PD-L1” value on PD-L1 (replicate 1) was found to be 96; on PD-L1 (replicate 2) it was 106; at PD-L1 (replicate 3) it was 102.

methyl-β-cyclodextrin [Me-β-CD]: the “Effect of endocytosis/energy inhibitor” value in the assay with RAW264.7 cells is “significant decreases in cellular fluorescence”.

Take polycytidylic acid [Poly C]: the “Effect on IL-17A uptake efficiency (in words)” value on SR-A was “no discernible impact”.

polyinosinic acid [Poly I]: the “Effect on IL-17A uptake efficiency (in words)” value at SR-A was “concentration-dependent inhibition”.
